In PubChem BioAssay AID179 (DTP/NCI, 2004):
Where “and” joins values, the source holds several entries; their conditions need not be identical. Identical values can stand only once. Calls of active or inactive are those of the source.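 How the source made its calls: active means compounds giving half or more protection of infected cells from virus-caused growth loss, again on retest; inactive means the rest.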

System: CEM cells HIV-1 protection, formazan growth assay
Experiment: NCI AIDS Antiviral Assay
Details: for IC50: measured here: growth of uninfected CEM cells
In short: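 Protection of CEM cells against HIV-1 was scored from cell growth (soluble formazan) across five concentrations, with parallel uninfected cells. Lack of protection may reflect toxicity.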

| SMILES | EC50 [µM] | IC50 | outcome |
| --- | --- | --- | --- |
| Cc1ccc(NC(=O)CC/C(CC(=O)c2ccc(Cl)cc2)=N\NC(=O)C(=O)NN)cc1C | > 8.32 | > 8.32 µM |  |
| CC(C)=CCNc1nc(Cl)nc2nc[nH]c12 | > 200 | 57.5 µM |  |
| CC1C(c2ccccc2)OC(N2CCOCC2)C(C)(C)CN1C (centres undefined) | > 200 | > 200 µM |  |
| COc1cc(CS(=O)c2ccc(O)cc2)cc(OC)c1OC (centres undefined) | > 200 | > 200 µM |  |
| O=C(Cc1nc2ccc(C(=O)c3ccccc3)cc2[nH]c1=O)C(=O)Nc1ccc(C(F)(F)F)cc1[N+](=O)[O-] | > 69.2 | 47.9 µM |  |
| C(=C\c1cc(-c2ccc3ccccc3n2)nc2ccc3ccccc3c12)/c1ccc2ccccc2n1 | > 200 | > 200 µM |  |
| COC(=O)C(C)[P+](c1ccccc1)(c1ccccc1)c1ccccc1 (centres undefined) | > 200 | 5.75 µM |  |
| Cc1cc(=O)[nH]c2cc(N(C)C)ccc12 | > 67.6 | > 67.6 µM |  |
| CCN(CC)c1cc2oc(=O)cc(C)c2cc1NC(=O)c1cc([N+](=O)[O-])cc([N+](=O)[O-])c1 | > 49 | > 49 µM |  |
| COc1ccc(-c2cc(=O)c3c(O)c(OC)c(OC)c(OC)c3o2)cc1 | > 200 | 55 µM |  |
| COC(=O)c1cc(C(=CCCO)c2cc(Cl)c(OC)c(C(=O)OC)c2)cc(Cl)c1OC | > 200 | 24.5 µM |  |
| CCOC(=O)c1ccc(CSc2ccccc2C(=O)O)cc1 | > 16.6 | > 16.6 µM |  |
| Cc1cccc2c1C/C(=C1\CCc3c(C)cccc31)C2=O |  |  | inactive |
| O=C(O)C12CC=CCC1(C(=O)O)CC=CC2 (centres undefined) | > 200 | > 200 µM |  |
| CC(C)CC1[C@@H](OCc2ccccc2)COS(=O)N1Cc1ccccc1 (some centres undefined) | > 200 | 26.3 µM |  |
| CCCN(CCC)CCc1ccc(OC2=CCN(C)CC2)cc1 | > 200 | 87.1 µM |  |
| CCNC(=S)N/N=C/c1cc([N+](=O)[O-])ccc1O | > 200 | 5.01 µM |  |
| CCC[CH2][Ge]([CH2]CCC)([CH2]CCC)[O]C(=O)CCl | > 32.4 | > 32.4 µM |  |
| NC(=O)c1ncn2c1NC(=O)CC2 |  |  | inactive |
| C=C1C(OC(=O)CC(c2ccccc2)N(C)C)C[C@H](OC(C)=O)[C@]2(C)C1C[C@@H]1CC(OC(C)=O)C(C)=C([C@@H](OC(C)=O)C2OC(C)=O)C1(C)C (some centres undefined) |  |  | inactive |
| COc1ccc(NCn2nc(CCCCCCCCc3nn(CNc4ccc(OC)cc4)c(=S)o3)oc2=S)cc1 | > 200 | 158 µM |  |
| Cc1ccc(/C=C2\N=C(N3CCCCC3)NC2=O)cc1 | > 200 | 191 µM |  |

| SMILES | EC50 [µM] | IC50 | outcome |
| --- | --- | --- | --- |
| COc1ccc(C2C3CCCC(C3=O)C(c3ccc(OC)cc3)N2N=O)cc1 (centres undefined) | > 19.1 | > 19.1 µM |  |
| O=C(O)c1c2c(cc3c(=O)c4ccccc4[nH]c13)CCCC2 | > 617 | 85.1 µM |  |
| CCOC(=O)COS(=O)(=O)C(F)(F)F | > 1050 | > 1050 µM |  |
| CCC(=O)C[P+](c1ccccc1)(c1ccccc1)c1ccccc1 | > 200 | 69.2 µM |  |
| FC(F)(F)c1cc(Cl)c2ccc3ccccc3c2n1 |  | 12.6 µM | inactive |
| COC1N(C2CC(F)C(CO)O2)C(=O)NC(=O)C1(C)I (centres undefined) | 0.00339 | 57.5 µM and 6.17 µM | active |
| c1cncc(CN2CCCCC2)c1 |  |  | inactive |
| O=C(O)c1cccc(S(=O)(=O)NN2C(=O)CSC2c2ccccc2Cl)c1 (centres undefined) | > 195 | 166 µM |  |
| COc1ccc2c(c1[N+](=O)[O-])CC[C@@H]1[C@@H]2CC[C@]2(C)C(=O)CC[C@@H]12 | > 11 | > 11 µM |  |
| O=C1C2C3C=CC(O3)C2C(=O)N1/N=C/c1ccc2c(c1)OCO2 (centres undefined) | > 200 | > 200 µM |  |
| CCOC(=O)/C=C(/OCC)[C@@H]1C(C(=O)c2ccc(Cl)cc2)[C@@H]1/C(=C\C(=O)OCC)OCC (some centres undefined) | > 200 | 5.89 µM |  |
| COc1ccc(OC)c(NC(=O)C(=O)NNC(=O)c2sc(NNC(C)=O)nc2C)c1 |  |  | inactive |
| c1ccc2c(C3NCCc4[nH]cnc43)cccc2c1 (centres undefined) | > 525 | > 525 µM |  |
| CC1CC/C(=C\c2ccc(Cl)cc2)c2nc(N)c(C#N)c(-c3ccc(Cl)cc3)c21 (centres undefined) | > 200 | 155 µM |  |
| O=C1CC2CCC(C1)S2 | > 200 | > 200 µM |  |
| CCOC(=O)/C(=C\c1cccc(C#N)c1)P(=O)(OCC)OCC | > 537 | 11 µM |  |
| COc1cc(C[C@H]2C(=O)OC[C@@H]2Cc2ccc(OC)c(OC)c2)cc(OC)c1 | > 200 | 91.2 µM |  |
| NS(=O)(=O)c1ccc(Nc2c3ccccc3nc3c(C(=O)N4CCN(CCO)CC4)ccc(Cl)c23)cc1 | > 49 | > 49 µM |  |
| COc1cc2c(cc1OC)C(Cc1ccccc1NC(=O)c1ccc(C(=O)Nc3ccccc3CC3c4cc(OC)c(OC)cc4CCN3C)cc1)N(C)CC2 (centres undefined) |  |  | inactive |
| CN(C(=O)C12C3C4C1C1C2C3C41C(N)=O)C(C)(C)C (centres undefined) | > 52.5 | > 52.5 µM |  |
| CC(=O)OCC1OC(n2c(-c3ccc(N)cc3)cc(-c3ccco3)c(C#N)c2=O)C(OC(C)=O)C(OC(C)=O)C1OC(C)=O (centres undefined) | > 11.7 | > 11.7 µM |  |
| CCOC1(C)Nc2cc(OC)cc3c2N1C(=O)CCS3 (centres undefined) | > 200 | 95.5 µM |  |

| SMILES | EC50 [µM] | IC50 | outcome |
| --- | --- | --- | --- |
| [pH]1p2[pH]p3p1p3[pH]2.c1cc[c]([Ge]([c]2ccccc2)[c]2ccccc2)cc1.c1cc[c]([Ge]([c]2ccccc2)[c]2ccccc2)cc1.c1cc[c]([Ge]([c]2ccccc2)[c]2ccccc2)cc1 |  |  | inactive |
| COc1ccc(/C=C/C(=O)c2ccc(Br)cc2)cc1 | > 200 | 33.1 µM |  |
| C=CCOC(=O)C1CC2OC2CC1C(=O)OCC=C (centres undefined) | > 200 | > 200 µM |  |
| Cc1cccc2c1C(=O)[C@](C)([C@]1(C)Nc3cccc(C)c3C1=O)N2 | > 200 | 17.4 µM |  |
| CC[N+](C)(C)CC(O)(O)C(F)F | > 200 | > 200 µM |  |
| CC(=O)NS(=O)(=O)c1ccc(NCc2cccc3c(=O)c4ccc(Cl)cc4oc23)cc1 | > 200 | 3.16 µM |  |
| CC(=O)C(N=NC1CCC(S(=O)(=O)NB2N=CS2)CC1)C(=O)Nc1ccccc1C (centres undefined) | > 11.5 | > 11.5 µM |  |
| O=C(c1ccc([N+](=O)[O-])cc1)N1CCCC1 | > 200 | > 200 µM |  |
| O=C(O)CCC(=O)Oc1ccc(O)c2c1CCCC2=O | > 339 | > 339 µM |  |
| c1ccc2c(c1)cc(C1NCCc3[nH]cnc31)c1ccccc12 (centres undefined) | > 24 | 15.1 µM |  |
| O=c1c(SCc2ccc(F)cc2)c(SCc2ccc(F)cc2)cnn1-c1ccccc1 | > 15.8 | > 15.8 µM |  |
| O=c1c2cc(S(=O)(=O)Nc3ccccc3Cl)ccc2ncn1NS(=O)(=O)c1ccc(Br)cc1 |  |  | inactive |
| O=c1[nH]nc(Cc2ccc([N+](=O)[O-])cc2)[nH]1 | > 200 | > 200 µM |  |
| [O]=[Sb]([OH])([OH])[c]1ccc(Br)cc1 | > 200 | 35.5 µM |  |
| COc1ccc(NC(=O)C2=CC(=O)c3ccc(O)cc3C2=O)c(OC)c1 | 75.9 | 708 µM |  |
| C[N+]1(CC(=O)c2ccc(O)c(O)c2)CCOCC1 | > 200 | > 200 µM |  |
| Cc1cc(-c2ccccn2)oc(=O)c1NC(=O)c1ccccc1 | > 200 | 30.2 µM |  |
| COc1cccc(C2CC23C(=O)NC(=O)NC3=O)c1 (centres undefined) | > 100 | > 100 µM |  |
| O=C1CCC2(c3ccc(Cl)cc3)Nc3cc(Cl)ccc3N12 (centres undefined) |  |  | inactive |
| CC(=O)n1c(O)c(N=Nc2ccccc2[N+](=O)[O-])c2ccccc21 | > 200 | > 200 µM |  |
| COc1cc(C)cc2ccc(Br)c(O)c12 | > 200 | > 200 µM |  |
| CCOC(=O)C(C)(C)Oc1ccc2c(=O)cc(-c3ccc(Cl)cc3)oc2c1 | > 18.6 | > 18.6 µM |  |

| SMILES | EC50 [µM] | IC50 | outcome |
| --- | --- | --- | --- |
| Cc1ccc(S(=O)(=O)N2c3ccccc3[C@H]3CCc4c([nH]c5ccccc45)[C@H]32)cc1 | 35.5 | > 100 µM |  |
| CCOC(=O)C(=O)Cc1cc(=O)n(C)c2ccccc12 | > 200 | 170 µM |  |
| O=C(Nc1ccccc1)c1cc(S(=O)(=O)N2CCNNC2=O)c(S)cc1Cl | 10.2 | 166 µM |  |
| C=CC(=O)N1C/C(=C\c2ccc(Cl)cc2)C(=O)/C(=C/c2ccc(Cl)cc2)C1 | > 0.2 | 0.0708 µM |  |
| O=C(OCCN1CCOCC1)C1C[C@@H](O)CN1C(=O)c1ccc2c(c1)OCO2 (some centres undefined) | > 200 | > 200 µM |  |
| CC(=O)C(=O)N1Cc2cc3ccccc3nc2C1 | > 708 | 257 µM |  |
| CC1Oc2cc3c(-c4c(O)cc(O)c5c(O)c6c(cc45)OC(C)C(C)C6=O)c(O)cc(O)c3c(O)c2C(=O)C1C (centres undefined) | > 34.7 | 0.38 µM |  |
| N#CCCN(CCC#N)c1ccc(/C=C2\N=C(COc3ccc(Cl)cc3Cl)OC2=O)cc1 | > 537 | 490 µM |  |
| CCOC(=O)C(c1ccsc1)P(=O)(OCC)OCC (centres undefined) | > 813 | 28.2 µM |  |
| COC(=O)Cc1cc(=O)n2c3ccccc3n(C)c2c1C#N | > 24.5 | > 24.5 µM |  |
| CN(C1=NCCO1)c1cccc2c1CCCC2 | > 200 | 4.47 µM |  |
| COc1ccc2c(c1OC)C(=O)O[C@@H]2C1c2cc3c(cc2CCN1C)OCO3 (some centres undefined) | > 245 | > 245 µM |  |
| Oc1ccccc1-c1nn2c(CCCCCCCCc3nnc4sc(-c5ccccc5O)nn34)nnc2s1 | > 200 | 12 µM |  |
| CC1=C(C(=O)Nc2ccccc2)C(c2ccc(C)o2)C(C#N)=C(SCc2ccccc2)N1 (centres undefined) | > 200 | 24 µM |  |
| CCCCCCCCCCCCCCCCNc1nc(=O)n(C2CC(N=[N+]=[N-])C(CO)O2)cc1C (centres undefined) | > 200 | 9.33 µM |  |
| C[N+](C)([O-])CCCNc1ccnc2cccc([N+](=O)[O-])c12 | > 200 | 27.5 µM |  |
| O=C1/C(=C/c2ccc(Cl)cc2)CCCc2ccccc21 | > 200 | 22.9 µM |  |
| CCCc1cc(=O)oc2c3c(cc(OC(C)C)c12)O[C@H](C)[C@H](C)C3=O | > 200 | 30.2 µM |  |
| Cc1ccccc1NC(=O)NC(Oc1ccccc1)(C(F)(F)F)C(F)(F)F | > 200 | > 200 µM |  |
| CC(O)C[P+](c1ccccc1)(c1ccccc1)c1ccccc1 (centres undefined) | > 200 | 15.8 µM |  |
